Values joined by “and” are separate entries in the source; they are usually repeats but may differ in a detail not shown here. Equal entries are not always repeated. Toxic doses and inconclusive results are not listed. No stated cut-off is given here; in the data, active means T/C of 150% or more; inactive means T/C below 125%.
Tested on: L1210 leukemia ip in BDF1 mice, survival T/C
Test: NCI In Vivo Anticancer Drug Screen. Data for tumor model L1210 Leukemia (intraperitoneal) in B6D2F1 (BDF1) mice
Settings: endpoint: mean survival time, higher = longer survival
In short: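 Read-out is survival time, reported as the treated-group measurement over the vehicle-control measurement.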

[1] = dose: 100.0 mg/kg/injection, schedule: Q01DX001 (ip), vehicle: Klucel (hydroxypropylcellulose) (HPC)
[2] = dose: 100.0 mg/kg/injection, schedule: Q01DX009 (ip), vehicle: Klucel (hydroxypropylcellulose) (HPC)
[3] = dose: 100.0 mg/kg/injection, schedule: Q04DX003 (ip), vehicle: Klucel (hydroxypropylcellulose) (HPC)
[4] = dose: 200.0 mg/kg/injection, schedule: Q01DX001 (ip), vehicle: Klucel (hydroxypropylcellulose) (HPC)
[5] = dose: 200.0 mg/kg/injection, schedule: Q01DX009 (ip), vehicle: Klucel (hydroxypropylcellulose) (HPC)
[6] = dose: 200.0 mg/kg/injection, schedule: Q04DX003 (ip), vehicle: Klucel (hydroxypropylcellulose) (HPC)
[7] = dose: 400.0 mg/kg/injection, schedule: Q01DX001 (ip), vehicle: Klucel (hydroxypropylcellulose) (HPC)
[8] = dose: 400.0 mg/kg/injection, schedule: Q01DX009 (ip), vehicle: Klucel (hydroxypropylcellulose) (HPC)
[9] = dose: 400.0 mg/kg/injection, schedule: Q04DX003 (ip), vehicle: Klucel (hydroxypropylcellulose) (HPC)
[10] = dose: 25.0 mg/kg/injection, schedule: Q01DX009 (ip), vehicle: saline
[11] = dose: 50.0 mg/kg/injection, schedule: Q01DX001 (ip), vehicle: saline
[12] = dose: 100.0 mg/kg/injection, schedule: Q01DX001 (ip), vehicle: saline
[13] = dose: 200.0 mg/kg/injection, schedule: Q01DX001 (ip), vehicle: saline
[14] = dose: 400.0 mg/kg/injection, schedule: Q01DX001 (ip), vehicle: saline
[15] = dose: 100.0 mg/kg/injection, schedule: Q04DX002 (ip), vehicle: Klucel (hydroxypropylcellulose) (HPC)
[16] = dose: 200.0 mg/kg/injection, schedule: Q04DX002 (ip), vehicle: Klucel (hydroxypropylcellulose) (HPC)
[17] = dose: 100.0 mg/kg/injection, schedule: Q01DX009 (ip), vehicle: saline with Tween-80
[18] = dose: 200.0 mg/kg/injection, schedule: Q01DX009 (ip), vehicle: saline with Tween-80
[19] = dose: 400.0 mg/kg/injection, schedule: Q04DX002 (ip), vehicle: Klucel (hydroxypropylcellulose) (HPC)
[20] = dose: 100.0 mg/kg/injection, schedule: Q04DX003 (ip), vehicle: saline with Tween-80
[21] = dose: 200.0 mg/kg/injection, schedule: Q04DX003 (ip), vehicle: saline with Tween-80
[22] = dose: 100.0 mg/kg/injection, schedule: Q01DX001 (ip), vehicle: other
[23] = dose: 200.0 mg/kg/injection, schedule: Q01DX001 (ip), vehicle: other
[24] = dose: 400.0 mg/kg/injection, schedule: Q01DX001 (ip), vehicle: other

Measured: T/C

O=C(O)CCCN1CCCCC1
inactive: dose: 100.0 mg/kg/injection, schedule: Q04DX002 (ip), vehicle: saline 103 % of control | dose: 200.0 mg/kg/injection, schedule: Q04DX002 (ip), vehicle: saline 100 % of control | dose: 400.0 mg/kg/injection, schedule: Q04DX002 (ip), vehicle: saline 100 % of control

Cc1ccc(S(=O)(=O)OCCS(C)(=O)=O)cc1
inactive: [1] 102 % of control | [2] 103 % of control | [3] 101 % of control | [4] 106 % of control | [5] 101 % of control | [6] 103 % of control | [7] 104 % of control | [8] 101 % of control | [9] 97 % of control

Cc1ccc(COC(=O)c2ccccc2)cc1
inactive: [2] 101 % of control | [3] 103 % of control | [5] 98 % of control | [6] 97 % of control | [8] 95 % of control | [9] 97 % of control

Cc1cc(C)c(NC(=O)/C=C/C(=O)O)c(C)c1
inactive: dose: 100.0 mg/kg/injection, schedule: Q04DX002 (ip), vehicle: saline with Tween-80 91 % of control and 92 % of control | dose: 200.0 mg/kg/injection, schedule: Q04DX002 (ip), vehicle: saline with Tween-80 94 % of control and 99 % of control | dose: 800.0 mg/kg/injection, schedule: Q04DX002 (ip), vehicle: saline with Tween-80 103 % of control

NS(=O)(=O)c1ccc(NC(=O)Nc2ccccc2C(F)(F)F)cc1
inactive: [2] 100 % of control | [5] 89 % of control | [8] 93 % of control

Cc1ccccc1Nc1cc(=O)[nH]c(N)n1
inactive: dose: 100.0 mg/kg/injection, schedule: Q01DX Z (ip), vehicle: methylcellulose (MC) 102 % of control | dose: 200.0 mg/kg/injection, schedule: Q01DX Z (ip), vehicle: methylcellulose (MC) 102 % of control

COC(=O)c1cocc1C(=O)N1Cc2cc3ccccc3nc2C1
inactive: [1] 103 % of control | [4] 95 % of control | [7] 94 % of control

Cc1cc[n+](Cc2ccccc2Cl)c(C)c1
inactive: dose: 6.25 mg/kg/injection, schedule: Q01DX009 (ip), vehicle: saline 105 % of control | dose: 6.25 mg/kg/injection, schedule: Q04DX003 (ip), vehicle: saline 96 % of control | dose: 8.0 mg/kg/injection, schedule: Q01DX009 (ip), vehicle: saline 99 % of control | dose: 12.0 mg/kg/injection, schedule: Q01DX009 (ip), vehicle: saline 96 % of control | dose: 12.5 mg/kg/injection, schedule: Q04DX003 (ip), vehicle: saline 102 % of control | dose: 18.0 mg/kg/injection, schedule: Q01DX009 (ip), vehicle: saline 105 % of control | [10] 113 % of control

O=C(/C=C/c1ccccc1)c1ccc(N=Cc2ccccc2)cc1
inactive: [11] 94 % of control | [12] 94 % of control | [13] 90 % of control | [14] 105 % of control

CCOC(=O)c1cc(OC(C)=O)c2c(ccc3cc(OC)ccc32)c1CC
inactive: dose: 100.0 mg/kg/injection, schedule: Q01DX009 (ip), vehicle: saline 91 % of control | dose: 100.0 mg/kg/injection, schedule: Q04DX003 (ip), vehicle: saline 93 % of control | dose: 200.0 mg/kg/injection, schedule: Q04DX003 (ip), vehicle: saline 96 % of control | dose: 400.0 mg/kg/injection, schedule: Q01DX009 (ip), vehicle: saline 91 % of control | dose: 400.0 mg/kg/injection, schedule: Q04DX003 (ip), vehicle: saline 91 % of control

COc1ccc2c(c1)C13CCCCC1C(C2)N(CC1(c2ccccc2)CC1)CC3 (stereo unspecified)
inactive: [2] 98 % of control | [3] 96 % of control | [5] 90 % of control | [6] 93 % of control | [9] 101 % of control

CCCP(C)(C)=S
inactive: [15] 90 % of control | [16] 90 % of control

O=C1CCCC/C1=C1/C(=O)Nc2ccccc21
inactive: dose: 50.0 mg/kg/injection, schedule: Q01DX009 (ip), vehicle: saline with Tween-80 104 % of control | [17] 118 % of control | [18] 110 % of control

CC(=O)OCc1c(C)[nH]c2ccc(N(C)C)cc2c1=O
inactive: [17] 102 % of control | [18] 112 % of control

Cc1ccc(Cl)cc1NC(=O)C(C)Oc1ccccc1 (stereo unspecified)
inactive: [15] 89 % of control | [16] 89 % of control | [19] 92 % of control

N#Cc1ccc(-n2cccc2)cc1
inactive: dose: 100.0 mg/kg/injection, schedule: Q01DX001 (ip), vehicle: steriod suspending solution 100 % of control | dose: 200.0 mg/kg/injection, schedule: Q01DX001 (ip), vehicle: steriod suspending solution 100 % of control | dose: 400.0 mg/kg/injection, schedule: Q01DX001 (ip), vehicle: steriod suspending solution 101 % of control

CC1CCCN(P(c2ccccc2)N2CCCC(C)C2)C1 (stereo unspecified)
inactive: dose: 100.0 mg/kg/injection, schedule: Q04DX002 (sc), vehicle: olive oil, sesame oil, peanut oil 97 % of control | dose: 200.0 mg/kg/injection, schedule: Q04DX002 (sc), vehicle: olive oil, sesame oil, peanut oil 100 % of control | dose: 400.0 mg/kg/injection, schedule: Q04DX002 (sc), vehicle: olive oil, sesame oil, peanut oil 100 % of control

COC(=O)C1=C2c3ccc(OC)cc3CCC2C(=O)C1 (stereo unspecified)
inactive: [3] 97 % of control | [6] 105 % of control | [9] 89 % of control

Cc1nnc(N)nc1C
inactive: [15] 95 % of control | [16] 103 % of control | [19] 95 % of control

CCCCCCCCCCCCN1CCCC(O)C1 (stereo unspecified)
inactive: [20] 93 % of control | [21] 88 % of control

CC1(C)N=C(N)N=C(N)N1c1ccc(CC(C(=O)Nc2cccc(S(=O)(=O)F)c2)c2ccccc2)cc1 (stereo unspecified)
inactive: dose: 25.0 mg/kg/injection, schedule: Q01DX001 (ip), vehicle: saline 105 % of control | [11] 106 % of control | dose: 87.5 mg/kg/injection, schedule: Q01DX001 (ip), vehicle: saline 94 % of control | [12] 97 % of control

CCCCSP(Oc1ccccc1)SCCCC
inactive: [2] 89 % of control

BrC1C2CC3C(C2)C13 (stereo unspecified)
inactive: [2] 104 % of control | [3] 100 % of control | [5] 95 % of control | [6] 95 % of control | [8] 98 % of control | [9] 93 % of control

O=Cc1c(Cl)n(C(=O)c2ccccc2)c2ccccc12
inactive: dose: 50.0 mg/kg/injection, schedule: Q04DX002 (ip), vehicle: Klucel (hydroxypropylcellulose) (HPC) 90 % of control | [15] 87 % of control | [16] 97 % of control

CCN(CC)CCSC(=O)c1ccc([N+](=O)[O-])cc1
inactive: [12] 98 % of control | [13] 104 % of control

O=C(O)c1cc(Cl)cc(F)c1Cl
inactive: [15] 101 % of control | [16] 105 % of control | [19] 105 % of control

O=C(O)c1cccc(Br)c1
inactive: [15] 102 % of control | [16] 98 % of control | [19] 102 % of control

O=C(OCCCCCCCOC(=O)c1cccc([N+](=O)[O-])c1)c1cccc([N+](=O)[O-])c1
inactive: [22] 98 % of control | [23] 101 % of control | [24] 107 % of control

CCCOC(C(=O)OC1CCN(C)CC1)(c1ccccc1)c1ccccc1
inactive: dose: 12.5 mg/kg/injection, schedule: Q01DX009 (ip), vehicle: saline 98 % of control | [10] 102 % of control | dose: 50.0 mg/kg/injection, schedule: Q01DX009 (ip), vehicle: saline 94 % of control

CCC(CN)(c1ccccc1)c1ccccc1
inactive: dose: 50.0 mg/kg/injection, schedule: Q01DX001 (ip), vehicle: other 96 % of control | [22] 104 % of control | [23] 102 % of control | [24] 96 % of control

O=C(CCc1ccccc1)Nc1ccccc1
inactive: [11] 96 % of control | [12] 106 % of control | [3] 97 % of control | [13] 101 % of control | [6] 102 % of control | [14] 102 % of control | [9] 89 % of control

CCNC(=O)Oc1cccc(NC(=O)OC)c1
inactive: [20] 104 % of control | [21] 93 % of control | dose: 400.0 mg/kg/injection, schedule: Q04DX003 (ip), vehicle: saline with Tween-80 95 % of control

Source: PubChem BioAssay AID248 (DTP/NCI, 2004)
